Test: Sensory evaluation of Vermont drink containing the agent
Settings: ten panels
Summary of the method: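 Tridecadienal or tridecatrienal isomers added at various concentrations to a Vermont-flavoured drink (apple-cider vinegar, honey, liquid sugar, citric acid, trisodium citrate, 100 mL total). Ten panelists assessed acid taste/acid smell and aldehyde-type off-odour, and the concentration giving the best acid taste/smell quality was selected.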

SMILES: CCCCC/C=C\C/C=C\CCC=O [(Z,Z)-4,7-tridecadienal]
- A: number of panels, acid taste/acid smell extreme and cause irritation (0.005 ppt): 10
- B: number of panels, acid taste/acid smell slightly strong and slightly cause irritation (0.005 ppt): 0
- C: number of panels, acid taste/acid smell slightly unpleasant (0.005 ppt): 0
- Flavor judgment: number of panels who judged acid taste/acid smell quality the highest (0.005 ppt): 0
- N: number of panels, irritation of acid reduced to give a mild acid taste (0.005 ppt): 0
- X: number of panels, acid taste reduced but piercing odor characteristic to aldehydes unpleasant (0.005 ppt): 0
- A: number of panels, acid taste/acid smell extreme and cause irritation (0.02 ppt): 8
- B: number of panels, acid taste/acid smell slightly strong and slightly cause irritation (0.02 ppt): 1
- C: number of panels, acid taste/acid smell slightly unpleasant (0.02 ppt): 1
- Flavor judgment: number of panels who judged acid taste/acid smell quality the highest (0.02 ppt): 0
- N: number of panels, irritation of acid reduced to give a mild acid taste (0.02 ppt): 0
- X: number of panels, acid taste reduced but piercing odor characteristic to aldehydes unpleasant (0.02 ppt): 0
- A: number of panels, acid taste/acid smell extreme and cause irritation (0.1 ppt): 6
- B: number of panels, acid taste/acid smell slightly strong and slightly cause irritation (0.1 ppt): 2
- C: number of panels, acid taste/acid smell slightly unpleasant (0.1 ppt): 2
- Flavor judgment: number of panels who judged acid taste/acid smell quality the highest (0.1 ppt): 0
- N: number of panels, irritation of acid reduced to give a mild acid taste (0.1 ppt): 0
- X: number of panels, acid taste reduced but piercing odor characteristic to aldehydes unpleasant (0.1 ppt): 0
- A: number of panels, acid taste/acid smell extreme and cause irritation (0.2 ppt): 5
- B: number of panels, acid taste/acid smell slightly strong and slightly cause irritation (0.2 ppt): 3
- C: number of panels, acid taste/acid smell slightly unpleasant (0.2 ppt): 2
- Flavor judgment: number of panels who judged acid taste/acid smell quality the highest (0.2 ppt): 0
- N: number of panels, irritation of acid reduced to give a mild acid taste (0.2 ppt): 0
- X: number of panels, acid taste reduced but piercing odor characteristic to aldehydes unpleasant (0.2 ppt): 0
- A: number of panels, acid taste/acid smell extreme and cause irritation (0.5 ppt): 1
- B: number of panels, acid taste/acid smell slightly strong and slightly cause irritation (0.5 ppt): 1
- C: number of panels, acid taste/acid smell slightly unpleasant (0.5 ppt): 3
- Flavor judgment: number of panels who judged acid taste/acid smell quality the highest (0.5 ppt): 1
- N: number of panels, irritation of acid reduced to give a mild acid taste (0.5 ppt): 5
- X: number of panels, acid taste reduced but piercing odor characteristic to aldehydes unpleasant (0.5 ppt): 0
- A: number of panels, acid taste/acid smell extreme and cause irritation (1 ppb): 0
- B: number of panels, acid taste/acid smell slightly strong and slightly cause irritation (1 ppb): 0
- C: number of panels, acid taste/acid smell slightly unpleasant (1 ppb): 3
- Flavor judgment: number of panels who judged acid taste/acid smell quality the highest (1 ppb): 0
- N: number of panels, irritation of acid reduced to give a mild acid taste (1 ppb): 3
- X: number of panels, acid taste reduced but piercing odor characteristic to aldehydes unpleasant (1 ppb): 4
- A: number of panels, acid taste/acid smell extreme and cause irritation (1 ppt): 0
- B: number of panels, acid taste/acid smell slightly strong and slightly cause irritation (1 ppt): 1
- C: number of panels, acid taste/acid smell slightly unpleasant (1 ppt): 3
- Flavor judgment: number of panels who judged acid taste/acid smell quality the highest (1 ppt): 2
- N: number of panels, irritation of acid reduced to give a mild acid taste (1 ppt): 6
- X: number of panels, acid taste reduced but piercing odor characteristic to aldehydes unpleasant (1 ppt): 0
- A: number of panels, acid taste/acid smell extreme and cause irritation (5 ppt): 0
- B: number of panels, acid taste/acid smell slightly strong and slightly cause irritation (5 ppt): 1
- C: number of panels, acid taste/acid smell slightly unpleasant (5 ppt): 2
- Flavor judgment: number of panels who judged acid taste/acid smell quality the highest (5 ppt): 4
- N: number of panels, irritation of acid reduced to give a mild acid taste (5 ppt): 7
- X: number of panels, acid taste reduced but piercing odor characteristic to aldehydes unpleasant (5 ppt): 0
- A: number of panels, acid taste/acid smell extreme and cause irritation (10 ppb): 0
- B: number of panels, acid taste/acid smell slightly strong and slightly cause irritation (10 ppb): 1
- C: number of panels, acid taste/acid smell slightly unpleasant (10 ppb): 2
- Flavor judgment: number of panels who judged acid taste/acid smell quality the highest (10 ppb): 0
- N: number of panels, irritation of acid reduced to give a mild acid taste (10 ppb): 2
- X: number of panels, acid taste reduced but piercing odor characteristic to aldehydes unpleasant (10 ppb): 5
- A: number of panels, acid taste/acid smell extreme and cause irritation (20 ppt): 0
- B: number of panels, acid taste/acid smell slightly strong and slightly cause irritation (20 ppt): 0
- C: number of panels, acid taste/acid smell slightly unpleasant (20 ppt): 3
- Flavor judgment: number of panels who judged acid taste/acid smell quality the highest (20 ppt): 3
- N: number of panels, irritation of acid reduced to give a mild acid taste (20 ppt): 6
- X: number of panels, acid taste reduced but piercing odor characteristic to aldehydes unpleasant (20 ppt): 1
- A: number of panels, acid taste/acid smell extreme and cause irritation (50 ppb): 0
- B: number of panels, acid taste/acid smell slightly strong and slightly cause irritation (50 ppb): 0
- C: number of panels, acid taste/acid smell slightly unpleasant (50 ppb): 1
- Flavor judgment: number of panels who judged acid taste/acid smell quality the highest (50 ppb): 0
- N: number of panels, irritation of acid reduced to give a mild acid taste (50 ppb): 2
- X: number of panels, acid taste reduced but piercing odor characteristic to aldehydes unpleasant (50 ppb): 7
- A: number of panels, acid taste/acid smell extreme and cause irritation (100 ppt): 0
- B: number of panels, acid taste/acid smell slightly strong and slightly cause irritation (100 ppt): 1
- C: number of panels, acid taste/acid smell slightly unpleasant (100 ppt): 3
- Flavor judgment: number of panels who judged acid taste/acid smell quality the highest (100 ppt): 0
- N: number of panels, irritation of acid reduced to give a mild acid taste (100 ppt): 4
- X: number of panels, acid taste reduced but piercing odor characteristic to aldehydes unpleasant (100 ppt): 2
- A: number of panels, acid taste/acid smell extreme and cause irritation (500 ppt): 0
- B: number of panels, acid taste/acid smell slightly strong and slightly cause irritation (500 ppt): 2
- C: number of panels, acid taste/acid smell slightly unpleasant (500 ppt): 2
- Flavor judgment: number of panels who judged acid taste/acid smell quality the highest (500 ppt): 0
- N: number of panels, irritation of acid reduced to give a mild acid taste (500 ppt): 4
- X: number of panels, acid taste reduced but piercing odor characteristic to aldehydes unpleasant (500 ppt): 2

Source: patent US20140120232A1, “ACID TASTE/ACID SMELL-REDUCING AGENT” (T. HASEGAWA CO., LTD., priority 2011, published 2014)
